Drawing on article PMC3775635, “Do N-arachidonyl-glycine (NA-glycine) and 2-arachidonoyl glycerol (2-AG) share mode of action and the binding site on the β2 subunit of GABAA receptors?” (PeerJ, 2013), this text covers EC50 for 1 compound.

SMILES strings stand for the structures.

In the assay the target is T1, GABAA receptor β2 subunit (α1β2γ2 GABAA receptor) (Rattus norvegicus, UniProt P63138).
T1 construct: gene Gabrb2; recombinant α1β2γ2 receptor expressed in Xenopus oocytes; also concatenated α1-β2-α1/γ2-β2; with GABAA receptor α1 and γ2 subunits
Description: two-electrode voltage clamp in Xenopus oocytes, potentiation of GABA currents; beta1/beta2 concatemers and point mutants. Format: cell-based. A general note: Two-electrode voltage clamp holds a large cell at a set potential and records current.

T1 sequence (P63138 26-474): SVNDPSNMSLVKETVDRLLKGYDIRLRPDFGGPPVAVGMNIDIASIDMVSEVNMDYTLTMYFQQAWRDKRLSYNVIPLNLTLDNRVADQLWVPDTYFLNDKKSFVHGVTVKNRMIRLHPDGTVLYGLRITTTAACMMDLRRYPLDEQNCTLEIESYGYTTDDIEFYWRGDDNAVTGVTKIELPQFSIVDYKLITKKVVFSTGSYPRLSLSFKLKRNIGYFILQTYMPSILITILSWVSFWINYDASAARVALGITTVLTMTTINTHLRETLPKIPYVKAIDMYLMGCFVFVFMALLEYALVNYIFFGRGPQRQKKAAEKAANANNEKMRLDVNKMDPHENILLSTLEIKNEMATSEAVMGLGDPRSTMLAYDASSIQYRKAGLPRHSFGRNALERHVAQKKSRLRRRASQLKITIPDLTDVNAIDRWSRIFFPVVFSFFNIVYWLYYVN
T1 sequence (P62813 28-455 partner): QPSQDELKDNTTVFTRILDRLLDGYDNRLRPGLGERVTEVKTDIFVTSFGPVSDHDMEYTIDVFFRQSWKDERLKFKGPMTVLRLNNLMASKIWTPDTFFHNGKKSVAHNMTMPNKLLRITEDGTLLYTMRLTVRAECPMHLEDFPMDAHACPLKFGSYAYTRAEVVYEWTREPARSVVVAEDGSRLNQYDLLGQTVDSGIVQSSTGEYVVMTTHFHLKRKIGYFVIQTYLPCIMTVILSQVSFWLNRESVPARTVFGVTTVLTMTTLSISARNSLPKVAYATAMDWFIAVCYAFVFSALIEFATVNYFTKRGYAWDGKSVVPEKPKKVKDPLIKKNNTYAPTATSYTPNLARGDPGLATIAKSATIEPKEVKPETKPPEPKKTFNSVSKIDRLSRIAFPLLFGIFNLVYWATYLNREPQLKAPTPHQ
T1 sequence (P18508 39-466 partner): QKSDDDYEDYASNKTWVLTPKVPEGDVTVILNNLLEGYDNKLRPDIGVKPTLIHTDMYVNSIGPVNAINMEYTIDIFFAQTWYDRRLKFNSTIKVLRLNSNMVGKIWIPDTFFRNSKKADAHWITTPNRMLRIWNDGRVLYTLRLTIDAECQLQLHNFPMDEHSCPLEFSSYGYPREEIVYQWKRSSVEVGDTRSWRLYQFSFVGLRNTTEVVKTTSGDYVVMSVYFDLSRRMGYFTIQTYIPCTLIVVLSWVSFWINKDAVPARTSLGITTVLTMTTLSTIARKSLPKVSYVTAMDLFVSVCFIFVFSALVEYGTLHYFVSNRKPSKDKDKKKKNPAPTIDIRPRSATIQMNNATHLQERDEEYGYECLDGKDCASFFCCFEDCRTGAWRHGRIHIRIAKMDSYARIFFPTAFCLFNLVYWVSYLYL

As to `CCCCC/C=C\C/C=C\C/C=C\C/C=C\CCCC(=O)NCC(=O)O` [NA-glycine], the EC50 (in general, the concentration at which the effect is half-maximal) fell in the range of 1 to 10 µM.
